These results are taken from patent US20250230153A1, “2,3-DIHYDROBENZO[B][1,4]DIOXIN-6-YL CONTAINING COMPOUNDS USEFUL AS IMMUNOMODULATORS” (BRISTOL-MYERS SQUIBB COMPANY, priority 2021, published 2025).

The experiment concerns the target PD-1/PD-L1 (Homo sapiens (Human), UniProt Q9NZQ7). The experiment in a line: PD-1/PD-L1 Homogenous Time-Resolved Fluorescence (HTRF) binding assay. The settings on record: PD-1-Ig (20 nM final)/PD-L1-His (10 nM final) binding assay. Summed up:
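Compounds pre-incubated 15 min with human PD-L1(18-239)-His (10 nM final), then 15 min with PD-1(25-167)-Ig (20 nM final), in dPBS with 0.1% BSA and 0.05% Tween-20. Detection with Eu-cryptate anti-Ig (1 nM) and APC anti-His (20 nM) after 30 min equilibration; 665/620 nm ratio read.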
(In general: TR-FRET usually uses a lanthanide donor and a delayed reading to cut background.)

PD-1/PD-L1, sequence (Q9NZQ7 18-239): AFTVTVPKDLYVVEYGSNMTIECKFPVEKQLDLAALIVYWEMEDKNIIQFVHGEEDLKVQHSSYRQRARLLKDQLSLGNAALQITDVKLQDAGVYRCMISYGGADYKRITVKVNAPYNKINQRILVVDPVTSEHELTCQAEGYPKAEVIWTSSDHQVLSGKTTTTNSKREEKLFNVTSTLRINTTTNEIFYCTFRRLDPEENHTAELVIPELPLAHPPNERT

With `Cc1c(COc2cc(OC[C@@H](C)CO)c(CN[C@](C)(CO)C(=O)O)cc2Cl)cccc1-c1ccc2c(c1)OCCO2` [Example 1035, (R)-2-((5-chloro-4-((3-(2,3-dihydrobenzo[b][1,4]dioxin-6-yl)-2-methylbenzyl)oxy)-2-((S)-3-hydroxy-2-methylpropoxy)benzyl)amino)-3-hydroxy-2-methylpropanoic acid], the IC50 was 3.4 nM. The value for `Cc1c(COc2cc(OCCCCN3CC[C@@H](O)C3)c(CN3CCCC[C@H]3C(=O)O)cc2Cl)cccc1-c1ccc2c(c1)OCCO2` [Example 1025, (S)-1-(5-Chloro-4-((3-(2,3-dihydrobenzo[b][1,4]dioxin-6-yl)-2-methylbenzyl)oxy)-2-(4-((R)-3-hydroxypyrrolidin-1-yl)butoxy)benzyl)piperidine-2-carboxylic acid] was 15.6 nM.

The term IC50 denotes the concentration needed to halve the response being measured. Lower therefore signals greater potency in that assay.
